Laboratory results taken from patent publication US5110935A, “New compounds which are active against the tissue forms of malaria and method of preparation” (Ire-Celltarg, S.A., priority 1988, dated 1992).
Several values for one entry are separate records, joined by “and”; a condition that tells them apart may be missing. Equal entries are not always repeated.

How the values were obtained:
female Swiss OF1 mice = assay: Acute toxicity in mice after a single i.v. administration; format: in vivo; conditions: for Fold less toxic than PQ: mice, i.v.; for LD50 / Maximum tolerated dose (MTD): single i.v., mg PQ diphosphate equivalent/kg; for Maximum tolerated dose (MTD): weight loss not exceeding 5% during 5 days
Description: (§1) The acute toxicity in terms of a single administered dose is determined on female Swiss OF1 mice weighing 22 to 25 g. A series of dilutions of each compound is injected intravenously into groups of 10 mice (0.1 ml per 10 g of weight).
(§2) The lethal dose for 50% of mice (LD50) is determined by linear regression of the logits of the percentage of surviving animals as a function of the logarithm of the dose injected (in mg PQ diphosphate equivalent/kg) (Logit Weighted Transformation, Berkson J., 1953; J. Am. Stat. Assoc. 48, 565-599).
(§3) ^a : The products are administered i.v. to groups of 10 female Swiss
(§4) ^b : Maximum tolerated dose (MTD), defined as the highest dose
(§5) The acute toxicity in terms of a single administered dose is determined under the same conditions and according the protocol of Example 3.

[1] = as above; format: in vivo; conditions: mouse, in vivo, iv, single i.v., mg PQ diphosphate equivalent/kg; for MTD: weight loss not exceeding 5% during 5 days, read-out: Maximum tolerated dose (MTD)
Description: as §1, §2, §3, §4, §5

Plasmodium berghei [2] = assay: Causal prophylactic activity on OF1 mice infected with Plasmodium berghei; format: in vivo, P. berghei (ANKA), in Swiss OF1 mice; conditions: for ED50 / ED100 / minimal effective dose: Plasmodium berghei, iv, 3 h; for ED50 / ED100 / minimal effective dose / CPD50, causal prophylactic dose curing 50% of the infected and treated animals / ED100, totally curative dose: single i.v. three hours after sporozoites, mg PQ diphosphate equivalent/kg; for ED50: read-out: CPD50, causal prophylactic dose curing 50% of the infected and treated animals; for ED100: read-out: ED100, totally curative dose; for minimal effective dose: read-out: Minimal effective dose (MED); for Activity relative to PQ, fold as active: model of malaria in mice; for CPD50, fold lower than for PQ: mouse, in vivo; for PQ index: ratio CPD50 of PQ/CPD50 of the compound
Description: Primaquine and its derivatives are tested in the model of malaria in rodents employing the infection of mice with Plasmodium berghei, the sporozoites originating from infected Anopheles stephensi mosquitoes. This model, developed by Most H., Herman R. & Schoenfeld C. (1967), Am. J. Trop. med. Hyg. 16, 572-575, enables the casual prophylatic (tissue schizonticidal) activity of new therapeutic compounds to be determined.
The procedure used is that derived from Most H. & Montuori W.A. (1975), Am. J. Trop. Med. Hyg. 24, 179-189. It involves the system P. berghei (ANKA)/Anopheles stephensi/Swiss OF1 mice. The ANKA strain of P. b. berghei is maintained cyclically on Anopheles stephensi. The Swiss OF1 strain mouse is especially sensitive to P. b. berghei, which produces an invariably fatal infection.
The legs, wings and abdomen are removed from female mosquitoes (80 to 100 individuals per preparation) and the latter are then homogenized at 4° C. in MEM medium (GIBCO) containing 10% of fetal calf serum using a glass Potter. The sporozoite suspension is then purified from the mosquito debris by two successive centrifugations (2 min at 50 g and 5 min at 200 g) and the collected supernatant is stored at 4° C. After counting in a Petroff-Hausser chamber, the number of parasites is adjusted by dilution with the same cold medium to a density of 2×10^5 sporozoites/ml.
The causal prophylactic activity of the compounds, that is to say the dose enabling 50% of the infected animals to be cured (CPD50) is obtained by analysis of the logits of the response (expressed as a % LTS) as a function of the dose (mg PQ/kg).
A volume of 0.5 ml of the suspension containing 10^5 sporozoites is injected i.v. into female Swiss OF1 mice weighing 20 to 25 g, used for the therapeutic tests. 1.2. Chemotherapeutic treatments
Groups of 20 to 25 mice, infected as described above, are treated with a single intravenous injection of primaquine diphosphate (PQ) or of its two derivatives in hydrochloride form, three hours after inoculation of the sporozoites. The volume injected is adjusted according to the weight of the mouse, on the basis of 0.25 ml for a weight of 25 g. The compounds are diluted in phosphatebuffered saline (PBS), pH 7.0, and the pH is adjusted to 7.0. Infected but untreated mice (5 per group), receive the buffer alone and serve to monitor the infectivity of the sporozoites.
The experimental mice are kept for a period of 50 days. The development of the parasitemia is followed by daily examination of blood smears stained for 60 min with 5% Giemsa in Sorensen buffer at pH 7.2, from day 5 up to day 15. The number of infected animals can thus be determined.
(§6) The animals infected using P. berchei sporozoites are treated three hours later with a single i.v. injection of the compounds. This test enables the casual prophylactic activity of the compounds, that is the dose enabling 50% of the infected animals to be cured (CPD50), to be defined. The dose is always expressed as mg of PQ diphosphate per kg.
as §6, with “berghei” for “berchei”

Plasmodium berghei [3] = assay: Therapeutic index in mice; format: in vivo, P. berghei; conditions: mice, i.v.
Excerpt: The therapeutic index is defined as the ratio of the toxicity, expressed as LD50, to the therapeutic activity, expressed as CPD50, in mice.
^b : The therapeutic index (TI) is the ratio of LD50 to […]

SMILES	Fold less toxic than PQ (female Swiss OF1 mice)	LD50 (female Swiss OF1 mice)	Maximum tolerated dose (MTD) (female Swiss OF1 mice)	LD50 [1] [mg/kg]	MTD [1] [mg/kg]	ED50 (Plasmodium berghei [2]) [mg/kg]	ED100 (Plasmodium berghei [2]) [mg/kg]	minimal effective dose (Plasmodium berghei [2]) [mg/kg]	Activity relative to PQ, fold as active (Plasmodium berghei [2])	CPD50, fold lower than for PQ (Plasmodium berghei [2])	PQ index (Plasmodium berghei [2])	CPD50, causal prophylactic dose curing 50% of the infected and treated animals (Plasmodium berghei [2])	ED100, totally curative dose (Plasmodium berghei [2])	Therapeutic index, fold higher than that of PQ (Plasmodium berghei [3])
COc1cc(NC(C)CCCNC(=O)[C@@H](N)CC(=O)O)c2ncccc2c1 (stereo partly drawn) [ASP-PQ, N-(α-L-aspartyl)-PQ]	at least 5 -fold	165.5 (5.4) mg/kg and 165 (5.4) mg/kg	107.2 (14.2) mg/kg	165	107	11.6	31	4.4	1.6 -fold	1.6 -fold	1.62	11.6 (0.9) mg/kg	31.1 (9.2) mg/kg	at least 8 -fold
COc1cc(NC(C)CCCNC(=O)C[C@H](N)C(=O)O)c2ncccc2c1 (stereo partly drawn) [βASP-PQ, N-(β-L-aspartyl)-PQ]	at least 5 -fold	164.4 (6.2) mg/kg and 164 (6.2) mg/kg	109.1 (13.1) mg/kg	164	109	11.2	31	4.1	at least 1.6 -fold	1.6 -fold	1.68	11.2 (0.7) mg/kg	30.6 (5.7) mg/kg	8 -fold
